Like-named read-outs stand apart in the source and are kept apart here.

The nature of one series: PAMPA-GIT permeability. The note with it: pH 7.4, 4 hours.
Series [1] relates to Caco-2 cells. Put plainly: Caco-2 permeability study (Examples 1-4). (Caco-2 monolayers are a common model of the intestinal barrier.)
Experimental: The culture growth medium consisted of DMEM supplemented with 10% heat-inactivated FBS, 1% MEM-NEAA, 2 mM 1-glutamine, 1 mM sodium pyruvate, 50,000 units Penicillin G Sodium and 50 mg Streptomycin Sulfate (Biological Industries). The medium was replaced every other day.
Cells (passage 55-60) were seeded at density of 25×10^5 cells/cm^2 on untreated culture inserts of polycarbonate membrane with 0.4 μm pores and surface area of 1.1 cm^2. Culture inserts containing Caco-2 monolayer were placed in 12 mm transwell plates (Corning). Culture medium was replaced every other day. Transepithelial Electrical Resistance (TEER) values were measured by Millicell ERS-2 System (Millipore) a week after seeding up to experiment day (21-23 days) to ensure proliferation and differentiation of the cells. When the cells were fully differentiated and TEER values became stable (200-500 Ω·cm^2). The TEER values were compared to control inserts containing only the medium.
The experiment was initiated by replacing the medium from both sides by apical (600 μl) and basolateral (1500 μl) buffers, both warmed to 37° C. The Cells were incubated with the buffers solutions for 30 min at 37° C. on a shaker (100 cycles/min). […] 50 μl samples were taken from the apical side immediately at the beginning of the experiment, resulting in 550 μl apical volume during the experiment.
Permeability Coefficient (Papp) for each compound was calculated from the linear plot of drug accumulated versus time, using the following equation:
Where dq/dt is steady state appearance rate of the compound on the receiver side, C0 is the initial concentration of the drug on the donor side, and A is the exposed tissue surface area (1.1 cm^2).
Transport studies were performed through the Caco-2 monolayer mounted in an Ussing-type chamber set-up with continuous trans-epithelial electrical resistance (TEER) measurements to assure TEER between 800 and 1200 Ω*cm^2. HBSS supplemented with 10 mM IVIES and adjusted to pH 6.5 were used as transport medium in the donor compartment and pH 7.4 in the acceptor compartment. The donor solution contained the test compound.
Permeability mechanism of compounds is studied by evaluating the Papp of a compound from the apical to the basolateral (A-to-B) membrane and its Papp from the basolateral to the apical membrane (B-to-A). The A-to-B assay simulates passive and transporter-mediated permeability. The B-to-A assay is essential complementary experiment indicative of the activity of P-gp. The ratio of the A-to-B and B-to A Papps (efflux ratio) is calculated to determine the permeability mechanism.
Series [2] can be described thus: Log D determination (octanol/PBS pH 7.4). The note with it: pH 7.4, octanol/PBS.
Experimental: (§1) Log D. Determination of distribution coefficients were performed as follows:
(§2) Incubations were carried out in Eppendorf-type polypropylene microtubes in triplicates. […] Phase separation was assured by centrifugation for 2 min at 6000 rpm. The octanol phase was diluted 100-fold with 40% acetonitrile, and aqueous phase was analyzed without dilution. The samples (both phases) were analyzed using HPLC system coupled with tandem mass spectrometer.
A short description of series [3]: Caco-2 A-B and B-A permeability with/without verapamil (Example 6). The note with it: human, Caco-2, pH 7.4.
For series [4], the system named is Caco-2 cells. Described as above. The conditions noted are these: 10 μM, 90 min, no verapamil.
The next series in a line: in vitro. The note with it: human; for efflux ratio at 90 min, 10 µM: Caco-2, pH 7.4, Net efflux (quotient of Papp (BA) to Papp (AB)); for Papp A→B at 90 min, 10 μM: Caco-2, pH 7.4, Papp (AB); for Papp B→A at 90 min, 10 μM: Caco-2, pH 7.4, Papp (BA).
The next series deals with P-gp. Put plainly: in vitro. The note with it: human, Caco-2, pH 7.4, Net efflux in the presence of Verapamil.
The conditions of series [5]: for Papp A→B: Caco-2, Papp (AB); for Papp B→A: Caco-2, Papp (BA).
The conditions of series [6]: pH 7.4, LogD, pH 7.4 (mean / reported value).
Experimental: as §1, §2
Series [7] relates to Caco-2 cells.
For series [8] the following is noted: PAMPA, pH 7.4. (In PAMPA a lipid-coated filter parts donor from acceptor wells.)
Text: (§3) The Parallel Artificial Membrane Permeability Assay (PAMPA) is used as an in vitro model of passive, transcellular permeation. […] This assay also allows evaluation of permeability over a large pH range, which is valuable for a preliminary understanding of how orally delivered compounds might be absorbed across the entire gastrointestinal tract. […] Depending upon the types of lipids used and other experimental conditions, PAMPA may be designed to model absorption in gastrointestinal tract (PAMPA-GIT), blood-brain barrier penetration (PAMPA-BBB) or skin penetration (Skin PAMPA). All steps of the PAMPA were carried out according to pION Inc. PAMPA Explorer™ Manual. The main principle of the assay is the incubation of compound in donor chamber (a well in Donor Plate) with aqueous buffer, which is separated from acceptor chamber (a well in Acceptor Plate) with another buffer by a phospholipid or hydrocarbon membrane fixed on a filter support. After the test, concentrations in the corresponding donor and acceptor wells are measured and permeability is calculated. GIT model was simulated using GIT-0 phospholipid mix. […] All compounds were tested in triplicates. Prisma HT buffer (pH 7.4) containing 50 μM test compounds and 0.5% DMSO were added into the Donor Plate wells. Acceptor Sink buffer was added into each well of the acceptor plate. Incubation was done at room temperature for 4 hours without stirring. […] Compounds with low UV-Vis signal were detected by LC-MS/MS method. Then the apparent permeability coefficient was calculated.

Text for PAMPA-GIT permeability: as §3

Take `CC(C)[C@@H]1C(=O)N[C@@H](CCCNC(=N)N)C(=O)NCC(=O)N[C@@H](CC(=O)O)C(=O)N[C@@H](C)C(=O)N(C)[C@@H](C)C(=O)N1C` [peptide 29, c(*vRGDA*A)]: in “PAMPA-GIT permeability”, the Mass retention was 15%; the “Permeability, Mean” value is below −7 Log10[10^−6 cm/s]; the “Permeability, replicate 1” value was below −7 Log10[10^−6 cm/s]; the “Permeability, replicate 2” value is below −7 Log10[10^−6 cm/s]. In the series “PAMPA-GIT permeability”, the “Permeability, replicate 3” value is below −7 Log10[10^−6 cm/s]. Also, the efflux ratio (in general, the permeability from basolateral to apical divided by that in the opposite direction, in the common usage) in the series on Caco-2 cells [1] (Table 3) worked out at 2.14. Also, in the series on Caco-2 cells [1] (Table 3, n = 3), the “Papp AB” value is 0.07 ± 0.01 cm/s × 10^6 and the “Papp BA” value was found to be 0.15 ± 0.01 cm/s × 10^6. Besides, in the series on Caco-2 cells [1] (qualitative), the “Caco-2 permeability” value is on record as “significant lower permeability”. In addition, the logD (commonly lipophilicity at a set pH, counting ionised and neutral species) in series [2] (pH 7.4, LogD, pH 7.4 (mean in parentheses below reported bound)) was -2.84. In addition, the “LogD, pH 7.4 (mean / reported value)” value in series [2] is below −1. In addition, the efflux ratio at 90 min, 10 µM in series [3] worked out at 0.4. Moreover, in the series on Caco-2 cells [4], the “Papp (AB), Mean” value is listed as 0.7 10^−6 cm/s; the “Papp (AB), replicate 1” value is 1.0 10^−6 cm/s; the “Papp (AB), replicate 2” value was 0.2 10^−6 cm/s; the “Papp (AB), replicate 3” value is listed as 0.9 10^−6 cm/s. Moreover, in the series with Caco-2 cells [4], the “Papp (BA), Mean” value is recorded as 0.3 10^−6 cm/s; the “Papp (BA), replicate 1” value was 0.3 10^−6 cm/s; the “Papp (BA), replicate 2” value is 0.4 10^−6 cm/s; the “Papp (BA), replicate 3” value is 0.2 10^−6 cm/s.

In the case of `C[C@H]1O[C@@H](O[C@H]2[C@@H](O)C[C@H](O[C@H]3[C@@H](O)C[C@H](O[C@H]4CC[C@@]5(C)[C@H](CC[C@@H]6[C@@H]5C[C@@H](O)[C@]5(C)[C@@H](C7=CC(=O)OC7)CC[C@]65O)C4)O[C@@H]3C)O[C@@H]2C)C[C@H](O)[C@@H]1O` [Digoxin], the efflux ratio at 90 min, 10 µM in the series “in vitro” was found to be 28.6; in the series on P-gp it was 1.5. Besides, the values for the Papp A→B at 90 min, 10 μM in “in vitro” (Mean), in the series “in vitro” (replicate 1) and in “in vitro” (replicate 3) were 0.4 ×10⁻⁶ cm/s, 0.4 ×10⁻⁶ cm/s and 0.5 ×10⁻⁶ cm/s, respectively. The Papp B→A (commonly the apparent permeability from the basolateral to the apical side of a cell layer) at 90 min, 10 μM in the series “in vitro” (Mean) stood at 12 ×10⁻⁶ cm/s; in the series “in vitro” (replicate 1), 9.4 ×10⁻⁶ cm/s; in “in vitro” (replicate 2), 12 ×10⁻⁶ cm/s; in the series “in vitro” (replicate 3), 14.7 ×10⁻⁶ cm/s.

As to `C[C@@H]1NC(=O)[C@H](C)NC(=O)[C@@H](C)N(C)C(=O)[C@H](C)N(C)C(=O)[C@H](C)NC(=O)[C@H](C)NC1=O` [1,6CHA, *aAAAA*A], in series [5] (Mean), the Papp A→B (in general, how fast a substance crosses the layer from the apical side) was determined as 0.1 ×10⁻⁶ cm/s and the Papp B→A is 0.1 ×10⁻⁶ cm/s. Also, in series [5] (replicate 2), the Papp A→B was 0.1 ×10⁻⁶ cm/s and the apparent permeability from basolateral to apical (Papp B→A) is 0.1 ×10⁻⁶ cm/s. In [5] (replicate 3), the Papp A→B was determined as 0.1 ×10⁻⁶ cm/s and the Papp B→A turned out to be 0.2 ×10⁻⁶ cm/s. Besides, the Papp B→A in series [5] (replicate 1) is 0.1 ×10⁻⁶ cm/s. In series [6], this compound yielded a logD of -0.97. The “Papp (AB), replicate 1” value with Caco-2 cells [7] is listed as 0.0 10^−6 cm/s. Further, in series [8], the Mass retention came out at 27%; the “Permeability, Mean” value was below −7 Log10[10^−6 cm/s]; the “Permeability, replicate 1” value was below −7 Log10[10^−6 cm/s]; the “Permeability, replicate 2” value is below −7 Log10[10^−6 cm/s]. For the same compound, the “Permeability, replicate 3” value in series [8] was below −7 Log10[10^−6 cm/s]. Further, in the series “in vitro”, the efflux ratio at 90 min, 10 µM is 1.1.

Values taken from US20200323962A1, “LIPOPHILIC PEPTIDE PRODRUGS” (YISSUM RESEARCH DEVELOPMENT COMPANY OF THE HEBREW …, priority 2017, published 2020).
